In US20070043034A1, “Chlorine Ion Uptake Modulators and Uses Thereof” (priority 2005, published 2007):

Biological target: T1, NKCCl (Rattus norvegicus, UniProt E9PTX9)
T1 construct: gramicidin perforated patch clamped CA1 pyramidal neuron in an acute hippocampal slice from a P5 rat; from tissue; host or cells: acute hippocampal slices of P3-P6 male Sprague-Dawley rats; CA1 pyramidal neurons
T1 sequence (E9PTX9 1-1203): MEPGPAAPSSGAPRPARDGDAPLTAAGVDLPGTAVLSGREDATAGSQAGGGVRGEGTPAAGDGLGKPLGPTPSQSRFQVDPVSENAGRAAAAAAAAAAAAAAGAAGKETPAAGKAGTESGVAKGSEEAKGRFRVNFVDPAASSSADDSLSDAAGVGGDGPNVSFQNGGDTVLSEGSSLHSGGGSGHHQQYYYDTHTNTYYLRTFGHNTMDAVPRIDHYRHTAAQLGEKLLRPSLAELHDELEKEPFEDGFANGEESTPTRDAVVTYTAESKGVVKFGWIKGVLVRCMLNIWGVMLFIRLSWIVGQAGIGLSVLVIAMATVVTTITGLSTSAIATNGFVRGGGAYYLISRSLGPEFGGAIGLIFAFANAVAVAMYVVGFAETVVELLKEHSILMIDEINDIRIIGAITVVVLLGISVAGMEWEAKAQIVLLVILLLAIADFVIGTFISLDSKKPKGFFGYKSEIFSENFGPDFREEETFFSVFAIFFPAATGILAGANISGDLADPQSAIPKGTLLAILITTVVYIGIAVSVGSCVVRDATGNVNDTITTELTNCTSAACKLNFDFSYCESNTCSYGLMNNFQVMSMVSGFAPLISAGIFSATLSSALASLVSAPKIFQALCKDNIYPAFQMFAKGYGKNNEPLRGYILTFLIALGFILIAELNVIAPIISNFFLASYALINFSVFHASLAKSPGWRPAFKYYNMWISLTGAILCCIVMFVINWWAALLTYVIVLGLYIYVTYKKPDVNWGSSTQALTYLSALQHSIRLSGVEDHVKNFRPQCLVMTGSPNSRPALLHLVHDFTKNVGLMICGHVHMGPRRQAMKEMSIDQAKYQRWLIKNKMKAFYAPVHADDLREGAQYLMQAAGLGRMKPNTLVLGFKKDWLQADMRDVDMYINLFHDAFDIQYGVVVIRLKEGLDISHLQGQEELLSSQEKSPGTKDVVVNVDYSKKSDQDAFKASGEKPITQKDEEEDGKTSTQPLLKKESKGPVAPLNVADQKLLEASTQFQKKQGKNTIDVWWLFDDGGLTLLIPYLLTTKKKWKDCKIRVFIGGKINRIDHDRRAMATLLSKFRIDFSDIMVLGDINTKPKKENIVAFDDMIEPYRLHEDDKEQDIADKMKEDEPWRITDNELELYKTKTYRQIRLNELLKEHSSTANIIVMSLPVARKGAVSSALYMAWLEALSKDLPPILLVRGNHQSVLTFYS
Experiment: Reversal potential of stimulus-evoked GABAA-PSCs in immature CA3 pyramidal cells
Assay type: cell-based
Method: Cell cultures, such as pyramidal cells, can be used to examine the effects of a pharmaceutical composition of the present invention on GABAA receptor activation. In one exemplary method, selective inhibition of NKCCl by a pharmaceutical composition of the present invention, bumetanide, was tested to examine the relationship between chloride accumulation in neurons, GABAA receptor activation and NKCC1. Specifically, the reversal potential of electrical stimulus evoked GABAA-receptor mediated post-synaptic currents (GABAA-PSCS) in immature P4-P6 CA3 pyramidal cells of the hippocampus was examined in the presence or absence of bumetanide. Electrical stimulation of the stratum radiatum (7 V, 30 us duration) evoked in control conditions a synaptic response that reversed at −42.4±1.7 mV (n=6) and was close to the reversal potential of spontaneous GABAA-PSCS (−46.1±0.7 mV; n=6, p=0.07). Examples of stimulus evoked postsynaptic currents at different holding potentials for individual pyramidal cell and corresponded current-voltage (I-V) relationship are shown in FIG. 1A. […] In presence of bumetanide, stimulus evoked GABAA-PSCs reversed at −46.1±1.9 mV (n=6, p=0.17). […] This in vitro system can be used to test any of the pharmaceutical compositions of the present invention for modulation of GABAA receptor activation. […]

SMILES: CCCCNc1cc(C(=O)O)cc(S(N)(=O)=O)c1Oc1ccccc1 [bumetanide, 3-(aminosulfonyl)-5-(butylamino)-4-phenoxybenzoic acid]
- shift in reversal potential of GABAA-PSCs (bumetanide 10 μM application): negative shift
- reversal potential of stimulus evoked GABAA-PSCs (bumetanide 10 μM, P4-P6 CA3 pyramidal cells, n=6, p=0.17, control −42.4±1.7 mV): −46.1±1.9 mV
